Assay results as given in ChEMBL document CHEMBL3244164, “Synthesis and analgesic activity of 1,3-dihydro-3-(substituted phenyl)imidazo[4,5-b]pyridin-2-ones and 3-(substituted phenyl)-1,2,3-triazolo[4,5-b]pyridines” (J Med Chem, 1978).

How the values were obtained:
Rattus norvegicus [1] = assay: Analgesic activity in Sprague-Dawley rat brewer's yeast treated foot assessed as response threshold at 32 mg/kg, po; format: functional
Rattus norvegicus [2] = assay: Analgesic activity in Sprague-Dawley rat normal foot assessed as response threshold at 32 mg/kg, po; format: functional

Structure (SMILES)	Activity (Rattus norvegicus [1])	Activity (Rattus norvegicus [2])
COC(=O)c1cnc2c(c1)[nH]c(=O)n2-c1ccc2c(c1)OCO2	<25 mm	<40 mm
CC(=O)n1c(=O)n(-c2ccc3c(c2)OCO3)c2ncccc21	25 mm	40 mm
c1cnc2c(c1)nnn2-c1ccncc1	<25 mm	<40 mm
COc1ccc(-n2c(=O)[nH]c3cccnc32)c(OC)c1	<25 mm	<40 mm
c1ccc(-n2nnc3cccnc32)cc1	<25 mm	<40 mm
CC(C)Cc1ccc(-n2nnc3cccnc32)cc1	<25 mm	<40 mm
NC(=O)c1ccccc1-n1nnc2cccnc21	25 mm	<40 mm
CN(C)c1ccc(-n2nnc3cccnc32)cc1	<25 mm	<40 mm
c1ccc(Oc2ccc(-n3nnc4cccnc43)cc2)cc1	<25 mm	<40 mm
C=C(C)Cn1c(=O)n(-c2ccc3c(c2)OCO3)c2ncccc21	<25 mm	<40 mm
Fc1ccccc1Cn1nnc2cccnc21	<25 mm	<40 mm
C=CCn1c(=O)n(-c2cccc3c2CCCC3)c2ncccc21	<25 mm	<40 mm
C=CCn1c(=O)n(-c2cccc3c2OCO3)c2ncccc21	<25 mm	<40 mm
O=c1[nH]c2cccnc2n1-c1ccc(F)cc1F	25 mm	<40 mm
CC(=O)Cn1c(=O)n(-c2ccc3c(c2)OCO3)c2ncccc21	<25 mm	<40 mm
Cc1cccc(C)c1-n1nnc2cccnc21	25 mm	<40 mm
Cc1cnc2c(c1)nnn2-c1ccccc1F	<25 mm	<40 mm
Cc1ccc(-n2nnc3cccnc32)c(C)c1	<25 mm	<40 mm
CC(=O)c1ccc(-n2nnc3cccnc32)cc1	<25 mm	<40 mm
c1cnc2c(c1)nnn2-c1ccc2c(c1)COC2	<25 mm	<40 mm
O=c1[nH]c2cccnc2n1-c1ccc(F)cc1	25 mm	40 mm
O=c1[nH]c2cncnc2n1-c1ccccc1F	<25 mm	<40 mm
Fc1ccccc1-n1nnc2cc(Cl)cnc21	25 mm	<40 mm

Structure (SMILES)	Activity (Rattus norvegicus [1])	Activity (Rattus norvegicus [2])
Fc1ccc(-n2nnc3cccnc32)cc1	<25 mm	<40 mm
S=c1[nH]c2cccnc2n1-c1ccc2c(c1)OCO2	<25 mm	<40 mm
O=c1n(Cc2ccccc2)c2cccnc2n1-c1ccc2c(c1)OCO2	<25 mm	<40 mm
C=CCn1c(=O)n(-c2ccccc2F)c2ncccc21	25 mm	<40 mm
O=c1[nH]c2cccnc2n1-c1cccc(Oc2ccccc2)c1	<25 mm	<40 mm
N#Cc1ccccc1-n1nnc2cccnc21	25 mm	<40 mm
CCCCCCn1c(=O)n(-c2ccc3c(c2)OCO3)c2ncccc21	25 mm	<40 mm
Clc1ccc(-n2nnc3cccnc32)cc1Cl	<25 mm	<40 mm
COc1ccc(-n2c(=O)[nH]c3cccnc32)cc1	<25 mm	<40 mm
C=CCn1c(=O)n(-c2ccc3c(c2)CCC3)c2ncccc21	<25 mm	<40 mm
COc1cc(-n2c(=O)[nH]c3cccnc32)ccc1C	<25 mm	<40 mm
O=c1[nH]c2cc([N+](=O)[O-])cnc2n1-c1ccccc1F	<25 mm	<40 mm
O=C(C1CC1)n1c(=O)n(-c2ccc3c(c2)OCO3)c2ncccc21	<25 mm	<40 mm
C=CCn1c(=O)n(-c2ccc(C)c(OC)c2)c2ncccc21	<25 mm	<40 mm
COc1cccc(-n2c(=O)[nH]c3cccnc32)c1	<25 mm	<40 mm
O=c1n(-c2ccc3c(c2)OCO3)c2ncccc2n1C(F)(F)C(F)Cl (stereo not drawn)	<25 mm	<40 mm
CC1(C)Oc2ccc(-n3c(=O)[nH]c4cccnc43)cc2O1	<25 mm	<40 mm
Cc1oc2ccc(-n3nnc4cccnc43)cc2c1C	<25 mm	<40 mm
CC(=O)OCCn1c(=O)n(-c2ccc3c(c2)OCO3)c2ncccc21	25 mm	<40 mm
CC(C)=O.O=C(Cn1c(=O)n(-c2ccc3c(c2)OCO3)c2ncccc21)c1ccccc1	<25 mm	40 mm
O=c1[nH]c2cccnc2n1CCc1ccccc1	<25 mm	<40 mm
CCC1(CC)Oc2ccc(-n3c(=O)[nH]c4cccnc43)cc2O1	<25 mm	<40 mm
CC(=O)Nc1ccc(-n2nnc3cccnc32)cc1	<25 mm	<40 mm

Structure (SMILES)	Activity (Rattus norvegicus [1])	Activity (Rattus norvegicus [2])
FC(F)(F)c1cccc(-n2nnc3cccnc32)c1	25 mm	<40 mm
C=CCn1c(=O)n(-c2cccc(C(=O)OCC)c2)c2ncccc21	<25 mm	<40 mm
O=c1n(C/C=C/c2ccccc2)c2cccnc2n1-c1ccc2c(c1)OCO2	<25 mm	<40 mm
Cc1c(Cl)cccc1-n1nnc2cccnc21	<25 mm	<40 mm
COc1cccc(-n2nnc3cccnc32)c1	<25 mm	<40 mm
COc1cc(-n2nnc3cccnc32)ccc1C	<25 mm	<40 mm
Cc1ccc(-n2c(=O)[nH]c3cccnc32)cc1C	<25 mm	<40 mm
O=c1[nH]c2cccnc2n1-c1ccc2c(c1)COCO2	<25 mm	<40 mm
C=CC(C)n1c(=O)n(-c2ccc3c(c2)OCO3)c2ncccc21 (stereo not drawn)	<25 mm	<40 mm
C=CCn1c(=O)n(-c2ccc3c(c2)COCO3)c2ncccc21	<25 mm	<40 mm
O=c1[nH]c2cncnc2n1-c1ccc2c(c1)OCO2	<25 mm	<40 mm
CCC(C)n1c(=O)n(-c2ccc3c(c2)OCO3)c2ncccc21 (stereo not drawn)	<25 mm	<40 mm
COc1cc(-n2c(=O)[nH]c3cccnc32)cc(OC)c1OC	<25 mm	<40 mm
Cc1ccc(-n2nnc3cccnc32)cc1	<25 mm	<40 mm
COc1ccc(OC)c(-n2c(=O)[nH]c3cccnc32)c1	<25 mm	<40 mm
Cc1c(Cl)cccc1-n1c(=O)[nH]c2cccnc21	<25 mm	<40 mm
c1cnc2c(c1)nnn2-c1ccc2c(c1)CCC2	<25 mm	<40 mm
O=c1n(-c2ccc3c(c2)OCO3)c2ncccc2n1S(=O)(=O)c1ccc(F)cc1	<25 mm	<40 mm
O=C(O)c1cnc2c(c1)[nH]c(=O)n2-c1ccccc1F	<25 mm	<40 mm
O=c1[nH]c2cccnc2n1-c1ccc(Oc2ccccc2)cc1	<25 mm	<40 mm
COc1ccc(OC)c(-n2nnc3cccnc32)c1	<25 mm	<40 mm
O=c1n(CC2CO2)c2cccnc2n1-c1ccc2c(c1)OCO2 (stereo not drawn)	<25 mm	<40 mm
C=CCn1c(=O)n(-c2ccc3c(c2)OC2(CCCCC2)O3)c2ncccc21	<25 mm	40 mm

Structure (SMILES)	Activity (Rattus norvegicus [1])	Activity (Rattus norvegicus [2])
COc1cc(-n2nnc3cccnc32)cc(OC)c1OC	<25 mm	<40 mm
COc1ccc(-n2c(=O)[nH]c3cccnc32)cc1OC	<25 mm	<40 mm
O=c1[nH]c2cccnc2n1-c1cc2c(cc1[N+](=O)[O-])OCO2	<25 mm	<40 mm
CC1(C)Oc2ccc(-n3nnc4cccnc43)cc2O1	<25 mm	<40 mm
O=c1[nH]c2cccnc2n1-c1cccc(C(F)(F)F)c1	<25 mm	<40 mm
c1ccc(-c2nc3cccnc3n2-c2ccc3c(c2)OCO3)cc1	<25 mm	<40 mm
Cc1cc2c(cc1-n1c(=O)[nH]c3cccnc31)OCO2	<25 mm	<40 mm
C#CCn1c(=O)n(-c2ccc3c(c2)OCO3)c2ncccc21	<25 mm	<40 mm
O=c1[nH]c2cccnc2n1-c1cccc2c1CCCC2	<25 mm	<40 mm
Cc1cccc(C)c1-n1c(=O)[nH]c2cccnc21	25 mm	<40 mm
CCCCNC(=O)n1c(=O)n(-c2ccc3c(c2)OCO3)c2ncccc21	<25 mm	<40 mm
Cc1oc2ccc(-n3c(=O)[nH]c4cccnc43)cc2c1C	<25 mm	<40 mm
C=CCn1c(=O)n(-c2ccc(OC)c(OC)c2)c2ncccc21	<25 mm	<40 mm
CCC1(CC)Oc2ccc(-n3nnc4cccnc43)cc2O1	<25 mm	<40 mm
Clc1ccc(-n2nnc3cccnc32)cc1	<25 mm	<40 mm
O=c1[nH]c2ccccc2n1-c1ccc2c(c1)OCO2	<25 mm	<40 mm
O=c1[nH]c2cccnc2n1-c1ccc(Cl)cc1	<25 mm	<40 mm
O=c1[nH]c2cccnc2n1-c1c(F)cccc1F	<25 mm	<40 mm
O=c1[nH]c2cccnc2n1-c1ccc(Cl)cc1Cl	25 mm	<40 mm
Clc1ccccc1-n1nnc2cccnc21	25 mm	<40 mm
